Values of other authors as cited in PMC10572662 (International Journal of Molecular Sciences, 2023).

Parameters: method as in PMID 17601630
Conditions: native βCD and commercial βCD derivatives

water solubility	Substance
600 mg/mL	2-hydroxypropyl-βCD
> 500 mg/mL	O-methyl-βCD
> 500 mg/mL	sulfobutylether-βCD
